Test results reported in PMC11432330, “Novel Drug-like HsrA Inhibitors Exhibit Potent Narrow-Spectrum Antimicrobial Activities against Helicobacter pylori” (International Journal of Molecular Sciences, 2024).
In brackets after ≈: the same amount, converted by molar mass. Read-outs that look alike come from different tables or passages of the source.

What was measured:
[1] = tested on: H. pylori ATCC 43504 (MTZ-R); experiment: MIC/MBC, broth microdilution; format: cell-based, Helicobacter pylori; settings: Helicobacter pylori, ATCC43504
Protocol: (§1) The antimicrobial activity of the HsrA inhibitors was evaluated by the determination of the minimal inhibitory concentration (MIC) against four different strains of H. pylori: ATCC 700392 (aka 26695), ATCC 43504 (MTZ-resistant reference strain), ATCC 700684 (CLR-resistant reference strain), and Donostia 2 (LVX-resistant clinical isolate). The MICs were determined by the broth microdilution method, as previously described. Briefly, H. pylori strains were grown in blood agar at 37 °C for 72 h under microaerobic conditions. Fresh inoculums adjusted at OD600 = 0.01 [~10^6 colony forming units (CFU) per mL] in BHI broth supplemented with 4% fetal bovine serum (BHI + FBS) were prepared and immediately exposed to final concentrations between 64 and 0.031 mg/L of each compound of interest. The compound solvent (DMSO) as well as conventional antibiotics (MTZ, CLR, LVX) were included as controls. […] Each experiment was performed twice in triplicate. The MIC and MBC values of the selected compounds against C. jejuni ATCC 33560 were determined by using the same method and culture conditions described for the H. pylori strains.

[2] = tested on: H. pylori ATCC 700392 (26695); experiment: MIC/MBC, broth microdilution; format: cell-based, Helicobacter pylori; settings: Helicobacter pylori, ATCC700392
Protocol: as §1

[3] = tested on: H. pylori ATCC 700684 (CLR-R); experiment: MIC/MBC, broth microdilution; format: cell-based, Helicobacter pylori; settings: Helicobacter pylori; for MBC: ATCC700684, read-out: MBC; for MIC: ATCC700684, read-out: MIC
Protocol: as §1

[4] = tested on: H. pylori Donostia 2 (LVX-R); experiment: MIC/MBC, broth microdilution; format: cell-based, Helicobacter pylori; settings: Helicobacter pylori
Protocol: as §1

[5] = tested on: C. jejuni ATCC 33560; experiment: MIC/MBC, broth microdilution; format: cell-based; settings: Campylobacter jejuni, ATCC33560, C. jejuni ATCC 33560
Protocol: as §1

[6] = tested on: K. pneumoniae ATCC 700603; experiment: MIC/MBC according to EUCAST guidelines; format: cell-based, Klebsiella pneumonia; settings: Klebsiella pneumoniae, ATCC700603
Protocol: The antimicrobial activities of the selected compounds against several Gram-negative and Gran-positive representative species of normal human microbiota were determined according to the EUCAST guidelines. Briefly, standardized inoculums (0.5 McFarland) were freshly prepared from overnight Mueller–Hinton agar plates of reference strains E. coli ATCC 25922, K. pneumonia ATCC 700603, E. faecalis ATCC 29212, S. aureus ATCC 29213, S. epidermidis ATCC 12228, and S. agalactiae ATCC 12386. Next, bacterial suspensions adjusted to 5 × 10^5 CFU/mL in Mueller–Hinton broth were exposed to a range of concentrations from 64 to 0.031 mg/L of the selected compounds. DMSO and conventional antibiotics LVX and AMP were included as controls. […] Experiments were performed twice in triplicate.

[7] = tested on: H. pylori ATCC 700392; experiment: Checkerboard assay with first-line antibiotics; format: cell-based, Helicobacter pylori
Protocol: Potential synergisms between the selected HsrA inhibitors and first-line antibiotics were evaluated by using checkerboard assays, as previous described. Briefly, the antimicrobials to be tested were twofold serially diluted in BHI + FBS using independent sterile microtiter plates. Then, concentration gradients from two antimicrobials were aseptically mixed at equal volumes in a new microtiter plate, resulting in a matrix of 77 unique combinations of both compounds. Next, freshly prepared inoculum of H. pylori ATCC 700392 adjusted at 2 × 10^6 CFU/mL in BHI+ FBS were added to all wells, and plates were incubated for 72 h at 37 °C under microaerophilic conditions. […] The fractional inhibitory concentration index (FICI) for each antimicrobial combination was calculated as previously described. Values of FICI ≤ 0.5, 0.5 < FICI ≤ 1, 1 < FICI ≤ 4, and FICI > 4 were considered as indicative of synergistic, additive, neutral, or antagonist interactions, respectively.

[8] = Cytotoxicity, PrestoBlue cell viability assay; format: cell-based; settings: human; HeLa cells, 24 h exposure; read-out: CC50 (50% cytotoxic concentration)
Protocol: (§2) The in vitro toxicity of the selected HsrA inhibitors was determined on HeLa cells by the PrestoBlue^TM assay, as previously described. Briefly, cells were cultured at 37 °C with 5% CO2 in Dulbecco’s modified Eagle’s medium containing 10% fetal bovine serum, 1% L-GlutaMAX^TM solution (Thermo Fisher Scientific), and 1% penicillin/streptomycin. When 80% confluence was achieved, cells were detached, counted, seeded in 96-well microplates at a density of 10,000 cells per well, and allowed to adhere for 24 h. Next, the mammalian cells were exposed to selected compounds at a range of 0.125 to 128 mg/L. After 24 h of exposure, the cell viability was measured with the PrestoBlue^TM cell viability reagent (Thermo Fisher Scientific), according to the manufacturer’s instructions. Experiments were performed twice in triplicate. The 50% cytotoxic concentration (CC50) of each compound was calculated by regression analysis using Microsoft Excel. Therapeutic index (TI) values were calculated as the ratio of the CC50 to the higher MIC observed for each compound [111].

[9] = tested on: HeLa cells; experiment: Cytotoxicity, PrestoBlue cell viability assay; format: cell-based; settings: for TI (CC50/MIC), therapeutic index: CC50 on HeLa / higher MIC observed against H. pylori
Protocol: as §2

[10] = H. pylori ATCC 43504 (MTZ-R), read-out: MBC
[11] = H. pylori ATCC 43504 (MTZ-R), read-out: MIC
[12] = H. pylori ATCC 700392 (26695), read-out: MBC
[13] = H. pylori ATCC 700392 (26695), read-out: MIC
[14] = H. pylori Donostia 2 (LVX-R), read-out: MBC
[15] = H. pylori Donostia 2 (LVX-R), read-out: MIC
[16] = in combination with CLR (clarithromycin)
[17] = in combination with LVX (levofloxacin)
[18] = in combination with MTZ (metronidazole)

Row | SMILES | MBC [1, 10] | MIC [1, 11] | MBC [2, 12] | MIC [2, 13] | MBC [3] | MIC [3] | MBC [5] | MIC [5] | MBC [6] | MIC [6] | FICI [7, 16] | FICantibiotic [7, 16] | FICinhibitor [7, 16] | FICI [7, 17] | FICantibiotic [7, 17] | FICinhibitor [7, 17] | FICI [7, 18] | FICantibiotic [7, 18] | FICinhibitor [7, 18] | CC50 at 24 h [8] | further results
1 | CSc1cccc(NC(=S)NCCNc2c([N+](=O)[O-])cc(C(F)(F)F)cc2[N+](=O)[O-])c1 [Ligand IV] | 4 µg/mL (≈ 8.41 µM) | 2 µg/mL (≈ 4.21 µM) | 4 µg/mL (≈ 8.41 µM) | 2 µg/mL (≈ 4.21 µM) | 4 µg/mL (≈ 8.41 µM) | 4 µg/mL (≈ 8.41 µM) | > 64 µg/mL | 64 µg/mL (≈ 135 µM) | > 64 µg/mL | > 64 µg/mL | 2 | 1 | 1 | 2 | 1 | 1 | 2 | 1 | 1 | 135 µg/mL (≈ 284 µM) | MBC [4, 14]: 4 µg/mL (≈ 8.41 µM); MIC [4, 15]: 4 µg/mL (≈ 8.41 µM); Cytotoxicity at 8 mg/L ([9]; HeLa cells, 8 mg/L, 24 h): completely safe
2 | N#Cc1cnn(-c2ccc(C(F)(F)F)cc2[N+](=O)[O-])c1N [Ligand I] | 1 µg/mL (≈ 3.36 µM) | 1 µg/mL (≈ 3.36 µM) | 4 µg/mL (≈ 13.5 µM) | 4 µg/mL (≈ 13.5 µM) | 4 µg/mL (≈ 13.5 µM) | 4 µg/mL (≈ 13.5 µM) | 32 µg/mL (≈ 108 µM) | 32 µg/mL (≈ 108 µM) | > 64 µg/mL | > 64 µg/mL | 2 | 1 | 1 | 2 | 1 | 1 | 0.625 | 0.125 | 0.5 | 119 µg/mL (≈ 401 µM) | MBC [4, 14]: 2 µg/mL (≈ 6.73 µM); MIC [4, 15]: 2 µg/mL (≈ 6.73 µM); Interaction [7, 16]: Neutral (no interaction or neutral (FICI > 1 to ≤4)); Interaction [7, 17]: Neutral (no interaction or neutral (FICI > 1 to ≤4)); Interaction [7, 18]: Additive (additive (FICI > 0.5 to ≤1)); Cytotoxicity at 8 mg/L ([9]; HeLa cells, 8 mg/L, 24 h): completely safe
3 | NC(=NOC(=O)Nc1ccc(Cl)cc1)c1csc([N+](=O)[O-])c1 [Ligand V, N′-{[(4-chloroanilino)carbonyl]}oxy-5-nitrothiophene-3-carboximidamide] |  |  |  |  | 0.031 µg/mL (≈ 0.091 µM) | 0.031 µg/mL (≈ 0.091 µM) | ≤ 0.5 µg/mL | ≤ 0.5 µg/mL | > 64 µg/mL | > 64 µg/mL | 0.56 | 0.5 | 0.06 | 2 | 1 | 1 | 0.625 | 0.125 | 0.5 | 183 µg/mL (≈ 538 µM) | MBC [1]: 0.125 µg/mL (≈ 0.367 µM); MIC [1]: 0.125 µg/mL (≈ 0.367 µM); MBC [2]: 0.125 µg/mL (≈ 0.367 µM); MIC [2]: 0.063 µg/mL (≈ 0.185 µM); MBC [4]: 0.125 µg/mL (≈ 0.367 µM); MIC [4]: 0.125 µg/mL (≈ 0.367 µM); Interaction [7, 17]: Neutral (no interaction or neutral (FICI > 1 to ≤4)); Cytotoxicity at 8 mg/L ([9]; HeLa cells, 8 mg/L, 24 h): completely safe
4 | OC1(C(F)(F)F)CC(c2ccc3c(c2)Nc2ccccc2S3)=NN1 (centres unmarked) [Ligand VIII] | 2 µg/mL (≈ 5.69 µM) | 1 µg/mL (≈ 2.85 µM) | 2 µg/mL (≈ 5.69 µM) | 1 µg/mL (≈ 2.85 µM) | 2 µg/mL (≈ 5.69 µM) | 1 µg/mL (≈ 2.85 µM) | 32 µg/mL (≈ 91.1 µM) | 16 µg/mL (≈ 45.5 µM) | > 64 µg/mL | > 64 µg/mL | 0.53 | 0.5 | 0.03 | 2 | 1 | 1 | 0.625 | 0.5 | 0.125 | 6.5 µg/mL (≈ 18.5 µM) | MBC [4, 14]: 2 µg/mL (≈ 5.69 µM); MIC [4, 15]: 2 µg/mL (≈ 5.69 µM); Interaction [7, 17]: Neutral (no interaction or neutral (FICI > 1 to ≤4)); TI (CC50/MIC), therapeutic index [9]: 3.2; Cell death ([9]; HeLa cells, 8 mg/L, 24 h): 68%
5 | N#C/C(=C\C=C\c1ccccc1)c1nc2ccccc2[nH]1 [Ligand XII] | 0.5 µg/mL (≈ 1.84 µM) | 0.5 µg/mL (≈ 1.84 µM) | 2 µg/mL (≈ 7.37 µM) | 2 µg/mL (≈ 7.37 µM) | 0.5 µg/mL (≈ 1.84 µM) | 0.5 µg/mL (≈ 1.84 µM) | > 64 µg/mL | 64 µg/mL (≈ 236 µM) | > 64 µg/mL | > 64 µg/mL | 0.75 | 0.25 | 0.5 | 1 | 0.5 | 0.5 | 0.5 | 0.25 | 0.25 | 13.4 µg/mL (≈ 49.4 µM) | MBC [4, 14]: 1 µg/mL (≈ 3.69 µM); MIC [4, 15]: 1 µg/mL (≈ 3.69 µM); Interaction [7, 16]: Additive (additive (FICI > 0.5 to ≤1)); TI (CC50/MIC), therapeutic index [9]: 6.7
